Measurements reported in the NIST ThermoML archive (doi:10.1021/acs.jced.5b00536).
Several values for one entry are separate records, joined by “and”; a condition that tells them apart may be missing. Equal values may be shown once.

Test: xn = mol fraction of the nth substance listed
Details: x2 = 0.79; for electrical conductivity / mass density: 100 kPa, Liquid; for electrical conductivity: Alternating current cell with electrodes; for mass density: Buoyancy - hydrostatic balance; for surface tension liquid-gas: Maximal bubble pressure

[Ca+2].[F-].[F-] [calcium fluoride] + [F-].[Li+]
Details	electrical conductivity [S/m]	mass density	surface tension liquid-gas [mN/m]
1131.2 K	0.05865	–	–
1131.4 K	–	2066.7 kg/m3	–
1131.9 K	–	2066.7 kg/m3	–
1132.7 K	–	2065.5 kg/m3	–
1132.8 K	–	2066 kg/m3	–
1133 K	0.05876	–	–
1133.3 K	–	2064.9 kg/m3	–
1134.1 K	–	2064.2 kg/m3	–
1134.2 K	–	2064.2 kg/m3	–
1134.7 K	0.05888	–	–
1135 K	–	2063.5 kg/m3	–
1135.3 K	–	2062.4 kg/m3 and 2063 kg/m3	–
1135.7 K	–	2062.4 kg/m3	–
1136.2 K	–	2061.7 kg/m3	–
1136.4 K	0.05912	–	–
1136.5 K	–	2060.6 kg/m3	–
1136.8 K	–	2060.6 kg/m3	–
1136.9 K	–	2061.1 kg/m3	–
1137.2 K	–	2060 kg/m3	–
1137.5 K	–	2061.6 kg/m3	–
1137.8 K	–	2061 kg/m3	–
1138.1 K	0.05927	–	–
1138.2 K	–	2060.4 kg/m3	–
1138.7 K	–	2059.8 kg/m3	–
1139.3 K	–	2059.2 kg/m3	–
1139.9 K	0.05965	–	–
1140 K	–	2059.1 kg/m3	–
1140.4 K	–	2058.5 kg/m3	–
1140.8 K	–	2057.9 kg/m3	–
1141.1 K	–	2057.3 kg/m3	–
1141.4 K	–	2056.7 kg/m3	–
1141.5 K	0.05989	–	–
1142 K	–	2056.6 kg/m3	–
1142.7 K	–	2056 kg/m3	–
1143.2 K	0.06013	–	–
1143.4 K	–	2055.4 kg/m3	–
1143.5 K	–	2054.8 kg/m3	–
1144.2 K	–	2054.7 kg/m3	–
1144.4 K	–	2054.1 kg/m3	–
1144.7 K	–	2053.5 kg/m3	–
1144.9 K	0.06033	–	–
1145.2 K	–	2053.5 kg/m3	–
1145.5 K	–	2052.9 kg/m3	–
1146 K	–	2061.1 kg/m3	–
1146.5 K	0.06057	2061.1 kg/m3	–
1146.9 K	–	2060.5 kg/m3	–
1147.5 K	–	2059.8 kg/m3	–
1147.8 K	–	2059.2 kg/m3	–
1148 K	–	2059.2 kg/m3	–
1148.2 K	0.06057	–	–
1148.6 K	–	2058.6 kg/m3	–
1148.9 K	–	2058 kg/m3	–
1149 K	–	2058 kg/m3	–
1149.7 K	–	2057.4 kg/m3	–
1149.9 K	0.06079	–	–
1150.3 K	–	2056.7 kg/m3	–
1150.8 K	–	2056.7 kg/m3	–
1151 K	–	–	215.9
1151.4 K	0.06095	2056.1 kg/m3	–
1152 K	–	2055.4 kg/m3	–
1152.6 K	–	2055.4 kg/m3	–
1152.9 K	–	2054.8 kg/m3	–
1153 K	0.06111	–	–
1153.8 K	–	2054.1 kg/m3	–
1154.1 K	–	2053.5 kg/m3	–
1154.5 K	0.06131	–	–
1154.6 K	–	2053.5 kg/m3	–
1154.8 K	–	2052.3 kg/m3 and 2052.9 kg/m3	–
1155.5 K	–	2051.7 kg/m3	–
1155.6 K	–	2051.7 kg/m3	–
1155.9 K	–	2051.1 kg/m3	–
1156.2 K	0.0616	–	–
1156.5 K	–	2050.5 kg/m3	–
1156.6 K	–	2049.9 kg/m3 and 2051 kg/m3	–
1157.1 K	–	2050.4 kg/m3	–
1157.5 K	–	2050.4 kg/m3	–
1157.7 K	0.06168	2049.8 kg/m3	–
1158.8 K	–	2049.1 kg/m3	–
1159 K	–	2048.5 kg/m3	–
1159.1 K	–	2048.5 kg/m3	–
1159.2 K	0.06195	–	–
1159.9 K	–	2047.9 kg/m3	–
1160.2 K	–	2047.3 kg/m3	–
1160.7 K	0.06201	–	–
1161.3 K	–	2046.6 kg/m3	–
1161.9 K	–	2046 kg/m3	–
1162.1 K	0.062142	–	–
1162.8 K	–	2045.9 kg/m3	–
1163.2 K	–	2045.3 kg/m3	–
1163.6 K	0.062335	2044.7 kg/m3	–
1164.3 K	–	2044.6 kg/m3	–
1164.7 K	–	2048.4 kg/m3	–
1164.8 K	0.062395	–	–
1164.9 K	–	2048.4 kg/m3	–
1165.1 K	–	2048.4 kg/m3	–
1165.4 K	–	2047.8 kg/m3	–
1166.2 K	–	2047.1 kg/m3	–
1166.5 K	–	2046.5 kg/m3	–
1167.2 K	–	2046.4 kg/m3	–
1167.7 K	–	2045.8 kg/m3	–
1167.9 K	–	2045.3 kg/m3	–
1168.5 K	–	2045.2 kg/m3	–
1168.8 K	–	2044.6 kg/m3	–
1169 K	–	2044.6 kg/m3	–
1169.3 K	–	2044 kg/m3	–
1169.9 K	–	2043.4 kg/m3	–
1170 K	–	–	216
1170.1 K	–	2042.8 kg/m3	–
1170.6 K	–	2042.7 kg/m3	–
1171.2 K	–	2042.1 kg/m3	–
1171.5 K	–	2041.5 kg/m3	–
1171.9 K	–	2040.9 kg/m3	–
1172.2 K	–	2040.9 kg/m3	–
1172.9 K	–	2040.3 kg/m3	–
1173.2 K	–	2039.7 kg/m3	–
1173.3 K	–	2039.1 kg/m3	–
1173.6 K	–	2039.1 kg/m3	–
1173.8 K	–	2038.5 kg/m3	–
1174.9 K	–	2043.9 kg/m3	–
1175.4 K	–	2043.3 kg/m3	–
1176 K	–	2042.7 kg/m3	–
1176.3 K	–	2042.1 kg/m3	–
1177.1 K	–	2042 kg/m3	–
1177.5 K	–	2041.4 kg/m3	–
1178.4 K	–	2040.7 kg/m3	–
1179.4 K	–	2040 kg/m3	–
1179.7 K	–	2040 kg/m3	–
1180.3 K	–	2039.4 kg/m3	–
1180.5 K	–	2038.3 kg/m3 and 2038.8 kg/m3	–
1180.8 K	–	2037.7 kg/m3	–
1181 K	–	2037.1 kg/m3	–
1181.2 K	–	2037.1 kg/m3	–
1181.6 K	–	2036.5 kg/m3	–
1182.2 K	–	2035.9 kg/m3	–
1182.5 K	–	2035.8 kg/m3	–
1182.8 K	–	2035.2 kg/m3	–
1183.2 K	–	2034.6 kg/m3	–
1183.9 K	–	2034.6 kg/m3	–
1184.1 K	–	2034 kg/m3	–
1184.5 K	–	2033.9 kg/m3	–
1185.8 K	–	2036.5 kg/m3	–
1186.6 K	–	2035.9 kg/m3	–
1187 K	–	2035.3 kg/m3	–
1187.8 K	–	2035.2 kg/m3	–
1188 K	–	–	213.8
1188.4 K	–	2034.6 kg/m3	–
1189.1 K	–	2033.9 kg/m3	–
1189.4 K	–	2033.9 kg/m3	–
1189.9 K	–	2033.3 kg/m3	–
1190.2 K	–	2032.7 kg/m3	–
1190.8 K	–	2032.6 kg/m3	–
1191.6 K	–	2032 kg/m3	–
1192.4 K	–	2031.4 kg/m3	–
1192.9 K	–	2030.7 kg/m3	–
1193.2 K	–	2030.7 kg/m3	–
1193.7 K	–	2030.1 kg/m3	–
1194.1 K	–	2029.5 kg/m3	–
1194.4 K	–	2029.5 kg/m3	–
1194.5 K	–	2028.9 kg/m3	–
1194.7 K	–	2028.3 kg/m3	–
1195.3 K	–	2028.3 kg/m3	–
1195.7 K	–	2027.7 kg/m3	–
1196 K	–	2027.1 kg/m3	–
1196.4 K	–	2027 kg/m3	–
1197.1 K	–	2026.4 kg/m3	–
1197.6 K	–	2026.3 kg/m3	–
1198.3 K	–	2025.7 kg/m3	–
1198.8 K	–	2025.1 kg/m3	–
1199.3 K	–	2025 kg/m3	–
1199.6 K	–	2024.4 kg/m3	–
1200 K	–	2024.4 kg/m3	–
1200.6 K	–	2023.8 kg/m3	–
1200.8 K	–	2023.2 kg/m3	–
1201.2 K	–	2023.2 kg/m3	–
1201.6 K	–	2022.6 kg/m3	–
1202.1 K	–	2022 kg/m3	–
1202.3 K	–	2020.8 kg/m3	–
1202.5 K	–	2020.8 kg/m3	–
1203 K	–	2020.2 kg/m3	–
1203.4 K	–	2020.1 kg/m3	–
1203.7 K	–	2019.6 kg/m3	–
